# How the values were obtained:
# [1] = test system: LPS-induced TNFα response; assay: In vivo LPS assay; design: species or system C57Bl/6J mice; details: 90 min post-LPS
# Protocol: (§1) ; subcutaneous; […]; intraperitoneal; n = 4) or vehicle (5% DMSO/20%PEG400/water; intraperitoneal; n = 12) 15 min prior to LPS (50 ug/kg; intraperitoneal). A control group was injected with vehicle 15 minutes prior to saline (n = 18). Following injections, mice were single-housed. At 90 min post-LPS/saline, mice were deeply anesthetized with isoflurane and blood was collected from the right ventricle via cardiac puncture (23 g needle) into lithium heparin-containing vials (BD microtainer plasma tubes). Subsequently, brains were collected after perfusion with phosphate-buffered saline. Plasma was separated by centrifugation (11,000 rpm for 3 minutes) within 60 min of collection and stored at -80°C until analysis. The concentration of TNFα in the collected plasma was measured by ELISA (Invitrogen, KMC3012) according to the manufacturer’s instruction. The LPS-induced inflammatory response in the CNS was assessed by measuring mRNA expression for genes related to neuroimmune activation in brain tissue according to the previously reported method. Briefly, total RNA was extracted from hippocampus containing coronal sections using the RNeasy Lipid Tissue Mini Kit (Qiagen), and transcribed into cDNA (Superscript III, Invitrogen). PCR was performed in duplicate using TaqMan gene expression assays, TNFα (Mm00443258_m1), IL1b (Mm00434228_m1), IL6 (Mm00446190_m1), and glyceraldehyde-3-phosphate dehydrogenase (GAPDH; Mm99999915_g1). Fold changes of expression relative to control were determined after normalization to GAPDH. Relative quantification and fold change were calculated by the comparative CT method. Brain uptake of STD-101-D1 was determined in brain tissue. […]
# [2] = Microsomal stability assay, mouse; format: in vitro ADME; details: 0.1 uM
# [3] = Pharmacokinetic study 1, 4-hr time course; format: in vivo, Sprague-Dawley rats; details: rat; for AUCinf / Cmax: 10 mg/kg PO
# Text: (§2) Two cohorts of Sprague-Dawley rats were used in two independent studies. All animals were fasted overnight before the experiment with free access to water. In study 1, a total of 18 rats were used for a 4 hr time course pharmacokinetic (PK) study. Rats were anesthetized with 3% isoflurane and catheters were implanted into the jugular and/or portal veins for compound administration and/or blood sampling at 1 to 2 days prior to the experiments as previously described. […] Four hours post-dose, rats were deeply anesthetized with isoflurane and blood samples were collected by cardiac puncture. In study 2, a total of 18 rats were used for a 20 min post-dose collection study. […] At 20 min post-dose, rats were deeply anesthetized with isoflurane and blood samples were collected by cardiac puncture. Brains were collected after perfusion with phosphate buffered saline. All plasma samples were immediately separated after collection by centrifugation (11,000 rpm for 3 minutes) and stored at −80°C until analysis. […] Tulobuterol was used as the internal standard. The flow rate was set to 0.45 ml/min. Column temperature was 25°C. […] The injection volume was 20 μl. The mass spectrometer was operated in the positive mode with multiple-reaction monitoring (MRM). […] Mobile phase A consisted of 10 mM ammonium acetate and 0.1% formic acid in LCMS grade water. Mobile phase B consisted of 10 mM ammonium acetate and 0.1% formic acid in LCMS grade acetonitrile:water 90:10% (v/v). […] Five μl of the extracted samples were injected. […] Data acquisition and analysis were performed using the Analyst 1.6.1 software (AB SCIEX, CA).
# [4] = Pharmacokinetic study 2, 20-min post-dose collection; format: in vivo, Sprague-Dawley rats; details: Sprague-Dawley, brain, rat, single administration
# Text: as §2
# [5] = Cardiovascular studies (heart rate, blood pressure); format: in vivo, Sprague-Dawley rats; details: anesthetized rats, 3 mg/kg subcutaneous
# Protocol: A polyethylene catheter (PE50) filled with heparinized saline was then inserted into the tail artery and connected to the blood pressure transducer system. After ensuring the absence of any air bubbles, 5–10 min of baseline systolic and diastolic blood pressure along with heart rate measurements were recorded using LabChart Pro (AD Instruments, CO).
# ADRB3 = ADRB3 (Homo sapiens, UniProt P13945); assay: Radioligand binding ADRB3; details: S2 Table; hot ligand [3H]CGP12177; read-out: Binding Affinity Ki
# ADR- Alpha 1A = ADR- Alpha 1A (Homo sapiens, UniProt P35348); assay: Radioligand binding ADR Alpha 1A; details: S2 Table; hot ligand [3H] Prazosin; read-out: Binding Affinity Ki
# ADR- Alpha 1B = ADR- Alpha 1B (Homo sapiens, UniProt P35368); assay: Radioligand binding ADR Alpha 1B; details: S2 Table; hot ligand [3H] Prazosin; read-out: Binding Affinity Ki
# ADR - Alpha 1D = ADR - Alpha 1D (Homo sapiens, UniProt P25100); assay: Radioligand binding ADR Alpha 1D; details: S2 Table; hot ligand [3H] Prazosin; read-out: Binding Affinity Ki
# ADR - Alpha 2B = ADR - Alpha 2B (Homo sapiens, UniProt P18089); assay: Radioligand binding ADR Alpha 2B; details: S2 Table; hot ligand [3H] Rauwolscine; read-out: Binding Affinity Ki
# ADR - Alpha 2C = ADR - Alpha 2C (Homo sapiens, UniProt P18825); assay: Radioligand binding ADR Alpha 2C; details: S2 Table; hot ligand [3H] Rauwolscine; read-out: Binding Affinity Ki
# 5-HT 1A = 5-HT 1A (Homo sapiens, UniProt P08908); assay: Radioligand binding 5-HT 1A; details: S2 Table; hot ligand [3H]8-OH-DPAT; read-out: Binding Affinity Ki
# 5-HT6 = 5-HT6 (Homo sapiens, UniProt P50406); assay: Radioligand binding 5-HT6; details: S2 Table; hot ligand [3H]LSD; read-out: Binding Affinity Ki
# [6] = test system: PBR (peripheral benzodiazepine receptor); assay: Radioligand binding PBR; details: S2 Table; hot ligand [3H]PK11195
# D3 dopamine receptor = D3 dopamine receptor (Homo sapiens, UniProt P35462); assay: Radioligand binding D3; details: S2 Table; hot ligand [3H]N-Methylspiperone; read-out: Binding Affinity Ki
# Sigma 1 receptor = Sigma 1 receptor (Homo sapiens, UniProt Q99720); assay: Radioligand binding Sigma 1 receptor; details: S2 Table; hot ligand [3H]Pentazocine(+); read-out: Binding Affinity Ki
# [7] = Brain uptake in the in vivo LPS study; design: species or system C57Bl/6J mice; details: C57Bl/6J, mouse, ip, mice, 3 mg/kg intraperitoneal, 105 min post-dose, read-out: concentration in brain homogenates
# Protocol: as §1, with “Briefly, total RNA was extracted from hippocampus containing coronal sections using the RNeasy Lipid Tissue Mini Kit (Qiagen), and transcribed into cDNA (Superscript III, Invitrogen). PCR was performed in duplicate using TaqMan gene expression assays, TNFα (Mm00443258_m1), IL1b (Mm00434228_m1), IL6 (Mm00446190_m1), and glyceraldehyde-3-phosphate dehydrogenase (GAPDH; Mm99999915_g1).” left out
# 5-HT 1A, sequence (P08908 whole entry, species assumed): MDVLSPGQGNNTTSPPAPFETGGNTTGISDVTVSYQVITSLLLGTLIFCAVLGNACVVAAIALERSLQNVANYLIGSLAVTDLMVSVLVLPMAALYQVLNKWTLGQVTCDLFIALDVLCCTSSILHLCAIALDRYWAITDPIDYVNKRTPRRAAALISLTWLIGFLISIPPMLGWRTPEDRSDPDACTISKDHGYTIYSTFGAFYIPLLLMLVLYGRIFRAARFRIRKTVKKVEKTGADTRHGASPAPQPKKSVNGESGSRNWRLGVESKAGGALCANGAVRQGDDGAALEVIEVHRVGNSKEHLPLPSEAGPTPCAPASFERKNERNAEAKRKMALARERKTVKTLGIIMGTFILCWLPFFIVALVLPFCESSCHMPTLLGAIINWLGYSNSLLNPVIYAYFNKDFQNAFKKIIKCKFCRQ
# ADR - Alpha 2C, sequence (P18825 whole entry): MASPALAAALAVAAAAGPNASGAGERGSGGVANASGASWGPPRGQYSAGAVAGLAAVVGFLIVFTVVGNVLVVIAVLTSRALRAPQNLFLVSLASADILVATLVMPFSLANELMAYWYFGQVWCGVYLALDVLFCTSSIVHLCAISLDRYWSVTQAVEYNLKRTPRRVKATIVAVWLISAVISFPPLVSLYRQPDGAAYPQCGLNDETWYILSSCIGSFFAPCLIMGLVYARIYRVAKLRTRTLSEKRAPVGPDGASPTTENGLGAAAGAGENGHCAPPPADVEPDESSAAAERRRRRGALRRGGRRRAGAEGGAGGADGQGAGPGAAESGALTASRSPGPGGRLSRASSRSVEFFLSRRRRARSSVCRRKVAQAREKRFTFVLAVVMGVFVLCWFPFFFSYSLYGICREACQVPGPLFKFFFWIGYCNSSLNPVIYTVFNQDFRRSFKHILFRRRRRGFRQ
# Sigma 1 receptor, sequence (Q99720 whole entry, species assumed): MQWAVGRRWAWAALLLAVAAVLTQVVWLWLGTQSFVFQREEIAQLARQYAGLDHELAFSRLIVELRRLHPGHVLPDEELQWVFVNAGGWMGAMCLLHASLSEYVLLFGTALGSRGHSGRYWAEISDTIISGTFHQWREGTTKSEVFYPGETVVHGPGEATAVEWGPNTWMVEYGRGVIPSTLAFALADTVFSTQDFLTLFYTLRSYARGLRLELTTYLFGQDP
# ADR- Alpha 1A, sequence (P35348 whole entry): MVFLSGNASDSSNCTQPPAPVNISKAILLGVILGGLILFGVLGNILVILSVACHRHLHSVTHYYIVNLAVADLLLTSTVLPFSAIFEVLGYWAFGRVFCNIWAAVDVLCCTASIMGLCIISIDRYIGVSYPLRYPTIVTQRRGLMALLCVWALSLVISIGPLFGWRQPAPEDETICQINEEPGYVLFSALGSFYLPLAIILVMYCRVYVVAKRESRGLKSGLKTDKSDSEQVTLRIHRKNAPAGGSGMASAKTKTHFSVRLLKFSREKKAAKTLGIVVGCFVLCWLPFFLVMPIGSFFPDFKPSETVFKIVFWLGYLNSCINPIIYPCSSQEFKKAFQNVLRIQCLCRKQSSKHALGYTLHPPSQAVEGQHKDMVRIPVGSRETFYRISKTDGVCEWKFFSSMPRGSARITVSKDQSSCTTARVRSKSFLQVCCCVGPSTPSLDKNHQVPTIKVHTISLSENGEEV
# ADR - Alpha 1D, sequence (P25100 whole entry): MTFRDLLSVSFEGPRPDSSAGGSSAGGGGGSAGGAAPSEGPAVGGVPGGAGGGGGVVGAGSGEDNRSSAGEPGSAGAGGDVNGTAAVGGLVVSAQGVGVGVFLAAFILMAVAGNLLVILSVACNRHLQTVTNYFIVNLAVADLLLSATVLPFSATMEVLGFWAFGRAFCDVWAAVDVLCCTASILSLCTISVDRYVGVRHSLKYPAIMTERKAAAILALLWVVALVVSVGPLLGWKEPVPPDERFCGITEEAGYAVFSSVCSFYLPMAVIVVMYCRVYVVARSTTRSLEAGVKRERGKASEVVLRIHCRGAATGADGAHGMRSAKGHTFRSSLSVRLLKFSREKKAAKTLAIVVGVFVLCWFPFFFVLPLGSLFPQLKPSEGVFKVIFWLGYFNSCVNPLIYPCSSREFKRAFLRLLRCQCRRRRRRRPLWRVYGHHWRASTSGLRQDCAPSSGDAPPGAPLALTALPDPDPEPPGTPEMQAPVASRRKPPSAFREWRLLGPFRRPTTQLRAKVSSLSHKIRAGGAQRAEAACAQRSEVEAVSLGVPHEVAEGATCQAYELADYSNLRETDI
# ADR - Alpha 2B, sequence (P18089 whole entry): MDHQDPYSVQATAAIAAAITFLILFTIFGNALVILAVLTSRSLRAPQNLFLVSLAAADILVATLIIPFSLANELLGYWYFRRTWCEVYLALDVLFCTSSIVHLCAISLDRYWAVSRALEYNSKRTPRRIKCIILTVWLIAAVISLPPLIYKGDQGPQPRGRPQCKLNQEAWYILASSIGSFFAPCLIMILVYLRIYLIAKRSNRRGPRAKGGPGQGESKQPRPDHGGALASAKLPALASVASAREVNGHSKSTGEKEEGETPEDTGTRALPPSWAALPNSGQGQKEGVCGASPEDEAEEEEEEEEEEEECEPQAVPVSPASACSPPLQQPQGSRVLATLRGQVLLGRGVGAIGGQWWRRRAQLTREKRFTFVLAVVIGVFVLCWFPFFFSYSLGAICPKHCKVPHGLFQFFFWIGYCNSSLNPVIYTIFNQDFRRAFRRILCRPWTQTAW
# ADR- Alpha 1B, sequence (P35368 whole entry): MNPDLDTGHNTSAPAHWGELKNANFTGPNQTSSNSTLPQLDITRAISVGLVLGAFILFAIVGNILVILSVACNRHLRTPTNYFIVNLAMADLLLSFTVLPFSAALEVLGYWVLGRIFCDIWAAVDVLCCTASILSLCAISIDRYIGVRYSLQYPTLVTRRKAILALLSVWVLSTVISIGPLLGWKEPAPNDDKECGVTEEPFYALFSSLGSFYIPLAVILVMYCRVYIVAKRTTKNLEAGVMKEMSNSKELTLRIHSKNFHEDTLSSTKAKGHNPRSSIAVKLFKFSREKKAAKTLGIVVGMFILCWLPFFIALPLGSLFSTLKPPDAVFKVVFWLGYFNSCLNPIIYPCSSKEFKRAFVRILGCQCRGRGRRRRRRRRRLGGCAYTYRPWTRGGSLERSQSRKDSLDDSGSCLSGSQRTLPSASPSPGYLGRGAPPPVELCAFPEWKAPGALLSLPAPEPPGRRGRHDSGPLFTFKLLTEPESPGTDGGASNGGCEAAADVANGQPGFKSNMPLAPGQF
# ADRB3, sequence (P13945 whole entry): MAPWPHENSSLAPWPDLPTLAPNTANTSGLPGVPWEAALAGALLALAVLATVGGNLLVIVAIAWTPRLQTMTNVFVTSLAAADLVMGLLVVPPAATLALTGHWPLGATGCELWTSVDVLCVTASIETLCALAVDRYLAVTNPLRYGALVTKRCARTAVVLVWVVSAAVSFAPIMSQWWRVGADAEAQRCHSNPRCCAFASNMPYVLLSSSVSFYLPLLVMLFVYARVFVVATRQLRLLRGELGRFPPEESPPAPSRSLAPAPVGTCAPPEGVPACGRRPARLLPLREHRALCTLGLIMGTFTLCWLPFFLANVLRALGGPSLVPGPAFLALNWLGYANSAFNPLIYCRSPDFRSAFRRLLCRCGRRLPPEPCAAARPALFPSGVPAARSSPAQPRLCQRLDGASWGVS
# D3 dopamine receptor, sequence (P35462 whole entry): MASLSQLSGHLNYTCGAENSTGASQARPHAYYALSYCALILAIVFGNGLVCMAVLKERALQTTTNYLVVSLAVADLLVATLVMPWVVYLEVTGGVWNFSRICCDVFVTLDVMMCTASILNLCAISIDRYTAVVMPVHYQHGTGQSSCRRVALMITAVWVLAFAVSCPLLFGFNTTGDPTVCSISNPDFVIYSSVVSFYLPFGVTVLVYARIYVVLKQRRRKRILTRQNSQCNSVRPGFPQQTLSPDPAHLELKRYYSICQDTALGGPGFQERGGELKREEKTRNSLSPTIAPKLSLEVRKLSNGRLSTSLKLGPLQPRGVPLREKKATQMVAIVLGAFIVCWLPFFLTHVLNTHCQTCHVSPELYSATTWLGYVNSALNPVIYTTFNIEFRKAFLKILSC
# 5-HT6, sequence (P50406 whole entry, species assumed): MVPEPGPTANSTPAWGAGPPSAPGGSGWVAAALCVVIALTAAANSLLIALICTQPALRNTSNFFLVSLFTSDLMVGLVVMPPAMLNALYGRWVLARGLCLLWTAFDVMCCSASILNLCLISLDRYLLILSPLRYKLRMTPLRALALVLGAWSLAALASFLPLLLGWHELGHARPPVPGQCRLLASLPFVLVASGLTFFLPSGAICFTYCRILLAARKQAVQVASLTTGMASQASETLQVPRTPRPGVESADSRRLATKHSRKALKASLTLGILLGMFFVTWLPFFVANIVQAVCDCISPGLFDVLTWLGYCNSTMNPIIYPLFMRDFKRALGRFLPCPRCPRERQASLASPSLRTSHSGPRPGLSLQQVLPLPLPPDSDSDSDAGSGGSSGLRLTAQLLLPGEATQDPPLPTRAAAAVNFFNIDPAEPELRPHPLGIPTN
smiles,measurement,setting,value
"COc1ccccc1OCCNC[C@H](O)COc1ccc(O)cc1.COc1ccccc1OCCNC[C@H](O)COc1ccc(O)cc1.O=C(O)/C=C/C(=O)O [STD-101-D1, (S)-4-(2-hydroxy-3-((2-(2-methoxyphenoxy)ethyl)amino)propoxy)phenol hemifumarate]",LPS-induced systemic (plasma) TNFα response,[1]; 3 mg/kg pre-treatment 15 min prior to LPS,markedly inhibited
same,CNS IL-1β (mRNA) after LPS,[1]; 3 mg/kg pre-treatment,trend for attenuation
same,CNS IL-6 (mRNA) after LPS,[1]; 3 mg/kg pre-treatment,no effect
same,LPS-induced inflammatory TNFα response in the brain (mRNA),[1]; 3 mg/kg pre-treatment,attenuated
same,"compound remaining after 60 min, mouse liver microsomes",[2],62.8%
same,time post-dose at which Cmax was achieved,"[3]; 10 mg/kg IP, systemic plasma",90 min
same,AUCinf,[3]; portal vein plasma,362 ± 367 ng·h/mL
same,Cmax,[3]; portal vein plasma,946 ± 867 ng/mL
same,AUCinf,[3]; systemic (jugular vein) plasma,101 ± 29 ng·h/mL
same,Cmax,[3]; systemic (jugular vein) plasma,116 ± 78 ng/mL
same,concentration at 20 min,"[4]; ip, 10 mg/kg intraperitoneally",288 nM
same,concentration at 20 min,"[4]; iv, 10 mg/kg intravenously",2500 nM
same,decrease in blood pressure,[5],46%
same,increase in heart rate,[5],13%
same,Ki,ADRB3,485 nM
same,Ki,ADR- Alpha 1A,17 nM
same,Ki,ADR- Alpha 1B,267 nM
same,Ki,ADR - Alpha 1D,25 nM
same,Ki,ADR - Alpha 2B,337 nM
same,Ki,ADR - Alpha 2C,108 nM
same,Ki,5-HT 1A,11 nM
same,Ki,5-HT6,1770 nM
same,Binding Affinity Ki,[6],- (< 50% inhibition of radioligand binding at 10 μM STD-101-D1)
same,Ki,D3 dopamine receptor,47 nM
same,Ki,Sigma 1 receptor,146 nM
same,concentration at 105 min,[7],130 ± 28.2 ng/g

# Reference: PMC5529018, “Discovery of novel brain permeable and G protein-biased beta-1 adrenergic receptor partial agonists for the treatment of neurocognitive disorders” (PLoS ONE, 2017)
